We go through one molecule from patent US20020072474A1, “Herbicidal compositions” (priority 2000, published 2002).

For assay [1], the system named is LOLMU (Lolium multiflorum). The assay can be described thus: Activity against grass weeds, post-emergence spray in pots in controlled-environment cabinet, visual scoring. Conditions: mesosulfuron-methyl 60 g a.i./ha (Silwet L77 50 g a.i./ha, sodium lactate 150 g a.i./ha where present); sprayed four weeks after sowing, water 300 l/ha; visual scoring 14 days after application, 0% = no damage to 100% = all plants dead. Format: in vivo. Here is the method: (§1) The individual components herbicide, surfactant and humectant as stated in Table 1 with regard to the application rates were added with stirring to a water application rate of 300 I/ha so that a homogeneous spray mixture was formed. The herbicide employed was mesosulfuron-methyl as 20 percent water-dispersible powder. The surfactant used was Silwet®L77 (Wacker) and the humectant used was sodium lactate as 50 percent aqueous solution (Merck KGaA, Darmstadt). Seeds of the harmful plants AVEFA and LOLMU were sown in a sandy loam soil in round pots type 13 in a controlled-environment cabinet and watered slightly. During the entire experiment period, the substrate only received minimal irrigation. A daytime temperature of 18° C. and a night time temperature of 16° C. were adhered to, a uniform day length of 16 hours being achieved by additional illumination with sodium vapor lamps (approx. 7000 lux). The relative atmospheric humidity was 50%. Four weeks after sowing, the plants were treated on a laboratory spray conveyor with the spray mixture which had been prepared in accordance with Example 1. The water application rate for the spray application of the preparations was 300 I/ha. After the treatment, the plants were returned to the controlled-environment cabinet. […]

The subject of another assay is AVEFA (Avena fatua). The assay is described as above. The assay is classed as in vivo. Conditions: mesosulfuron-methyl 60 g a.i./ha (Silwet L77 50 g a.i./ha, sodium lactate 150 g a.i./ha where present); sprayed four weeks after sowing, water 300 l/ha; visual scoring 14 days after application, 0% = no damage to 100% = all plants dead. As to the method: as §1

In the case of `COC(=O)c1ccc(CNS(C)(=O)=O)cc1S(=O)(=O)NC(=O)Nc1nc(OC)cc(OC)n1` [Mesosulfuron, mesosulfuron-methyl], in assay [1], the “Damage in % LOLMU” value came out at 18%. Further, the “Damage in % AVEFA” value in the assay on AVEFA (Avena fatua) amounted to 22%.
